Values of other authors in PMC5588751 (Nanotheranostics, 2017).

Test system: blood-brain barrier (BBB)
Conditions: [20]

Ac-SHAVAS-NH2 [HAV4]
Brain delivery of Gd-DTPA (small molecular weight marker) (dose-dependent manner, MRI, ref [17], [18]): significantly enhanced
Duration of BBB opening for Gd-DTPA (small molecule) (pretreatment studies with Gd-DTPA detected by MRI, ref [18]): less than 1 h
